Target: T1, AHR (UniProt P35869)
T1 sequence (P35869 1-848): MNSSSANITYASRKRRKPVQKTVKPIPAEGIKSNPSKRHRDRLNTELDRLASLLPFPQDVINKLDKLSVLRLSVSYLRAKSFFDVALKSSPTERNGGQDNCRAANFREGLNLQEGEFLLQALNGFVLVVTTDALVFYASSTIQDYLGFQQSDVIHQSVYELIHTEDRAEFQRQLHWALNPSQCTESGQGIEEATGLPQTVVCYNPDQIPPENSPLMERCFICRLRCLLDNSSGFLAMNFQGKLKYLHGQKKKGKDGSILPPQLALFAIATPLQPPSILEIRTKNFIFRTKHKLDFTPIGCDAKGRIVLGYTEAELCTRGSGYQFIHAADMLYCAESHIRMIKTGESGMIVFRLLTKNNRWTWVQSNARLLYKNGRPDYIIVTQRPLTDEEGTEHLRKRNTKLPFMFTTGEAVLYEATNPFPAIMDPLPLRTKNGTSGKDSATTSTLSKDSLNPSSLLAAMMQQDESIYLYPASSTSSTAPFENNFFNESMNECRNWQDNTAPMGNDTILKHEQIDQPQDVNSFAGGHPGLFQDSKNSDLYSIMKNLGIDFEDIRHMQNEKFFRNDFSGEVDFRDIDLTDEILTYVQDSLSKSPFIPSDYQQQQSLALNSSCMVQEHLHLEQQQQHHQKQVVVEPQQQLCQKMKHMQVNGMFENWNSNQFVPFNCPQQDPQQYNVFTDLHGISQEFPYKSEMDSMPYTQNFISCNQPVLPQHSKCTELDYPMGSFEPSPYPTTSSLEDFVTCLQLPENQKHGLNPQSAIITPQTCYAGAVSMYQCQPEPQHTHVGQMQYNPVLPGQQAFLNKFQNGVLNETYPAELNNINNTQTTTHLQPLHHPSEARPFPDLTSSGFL
Experiment: DRE-Luciferase Reporter Assay (Alternate Method), Example 1B
Assay type: cell-based
Details: concentration which inhibits half of the luciferase activity induced by AHR activating ligand; DRE-luciferase reporter cell line
Experimental: AHR binds to Dioxin Responsive Elements (DRE) upstream of genes that it activates. One measure of AHR activity is activation of a reporter gene, such as luciferase, downstream of one or multiple DRE elements. Luciferase activity will reflect activation and inhibition of AHR in the cells expressing his reporter.
Murine Hepa1-6 or Hepa-1c1c7 or other murine cell line with a DRE-luciferase reporter either stably or transiently transfected were plated in media in plates (96-well, 384-well or other plates) and incubated overnight at 37° C. in a C02 incubator or compound and agonist were added at the time of plating. Likewise, human HepG2 or other human cell line with a DRE-luciferase reporter either stably or transiently transfected were plated in media in plates (96-well, 384-well or other plates) and incubated overnight at 37° C. in a C02 incubator or compound and agonist were added at the time of plating.
At the time that cells are plated or following incubation overnight, an AHR activating ligand, such as TCDD, kynurenine, ITE (2-(1H-indole-3-ylcarbonyl)-4-thiazolecarboxylic methyl ester), VAF347, BNF (beta-naphthoflavone), FICZ (6-formylindolo(3,2-b) carbazole or other AHR ligands, was added with or without AHR antagonist.
Cells were incubated for 4, 15 or 24 hours or another time point and then lysed for determination of luciferase activity as a read-out of the AHR activation or inhibition. Luciferase was measured with a commercial kit such as the Promega Luciferase kit or any kit or reagents that provide the luciferin substrate for measuring luciferase activity. The level of luciferase with only activating ligand added was the maximum signal while the luciferase with no ligand was the minimum signal. IC50 values were determined as the concentration which inhibits half of the luciferase activity.

Row | Structure (SMILES) | IC50
1 | CC(C)c1cnn2c(N[C@@H]3CCc4[nH]c5cnccc5c4C3)nc(-c3cncc(F)c3)nc12 [Compound I-13a, (6R)—N-[2-(5-fluoro-3-pyridyl)-8-isopropyl-pyrazolo[1,5-a][1,3,5]triazin-4-yl]-6,7,8,9-tetrahydro-5H-pyrido[3,4-b]indol-6-amine] | > 1500 nM
2 | Cc1nccn1-c1nc(N[C@@H]2CCc3[nH]c4ccccc4c3C2)n2ncc(C(C)C)c2n1 [Compound I-19, (3R)—N-[8-Isopropyl-2-(2-methylimidazol-1-yl)pyrazolo[1,5-a][1,3,5]triazin-4-yl]-2,3,4,9-tetrahydro-1H-carbazol-3-amine] | > 1500 nM
3 | CC(C)c1cnn2c(N[C@H]3CCc4[nH]c(=O)ccc4C3)nc(-c3cncc(F)c3)nc12 [Compound I-36b, (S)-6-((2-(5-Fluoropyridin-3-yl)-8-isopropylpyrazolo[1,5-a][1,3,5]triazin-4-yl)amino)-5,6,7,8-tetrahydroquinolin-2(1H)-one] | > 1500 nM
4 | CC(C)c1cnn2c(N[C@@H]3CCc4[nH]c5cc(O)ccc5c4C3)nc(-c3cncc(F)c3)nc12 [Compound I-27a, (6R)-6-[[2-(5-Fluoro-3-pyridyl)-8-isopropyl-pyrazolo[1,5-a][1,3,5]triazin-4-yl]amino]-6,7,8,9-tetrahydro-5H-carbazol-2-ol] | > 1500 nM
5 | CC(C)c1cnn2c(N[C@H]3CNc4ccccc4C3)nc(-c3cncc(F)c3)nc12 [Compound I-35b, (R)—N-(2-(5-Fluoropyridin-3-yl)-8-isopropylpyrazolo[1,5-a][1,3,5]triazin-4-yl)-1,2,3,4-tetrahydroquinolin-3-amine] | 500 to 1000 nM
6 | CC(C)c1cnn2c(N[C@@H]3CCc4[nH]c5ccccc5c4C3)nc(-n3cccn3)nc12 [Compound I-21, (3R)—N-(8-isopropyl-2-pyrazol-1-yl-pyrazolo[1,5-a][1,3,5]triazin-4-yl)-2,3,4,9-tetrahydro-1H-carbazol-3-amine] | > 1500 nM
7 | CC(C)c1cnn2c(NCCNc3ccccn3)nc(-c3cncc(F)c3)nc12 [Compound I-45, N′-[2-(5-Fluoro-3-pyridyl)-8-isopropyl-pyrazolo[1,5-a][1,3,5]triazin-4-yl]-N-(2-pyridyl)ethane-1,2-diamine] | 1000 to 1500 nM
8 | CC(C)c1cnn2c(N[C@@H]3CCc4[nH]ncc4C3)nc(-c3cncc(F)c3)nc12 [Compound I-7a, 2-(5-fluoro-3-pyridyl)-8-isopropyl-N-[(5R)-4,5,6,7-tetrahydro-1H-indazol-5-yl]pyrazolo[1,5-a][1,3,5]triazin-4-amine] | > 1500 nM
9 | CC(C)c1cnn2c(N[C@@H]3CCc4[nH]c5ccccc5c4C3)nc([C@H]3CCCOC3)nc12 [Compound I-15b, (3R)—N-[8-isopropyl-2-[(3R)-tetrahydropyran-3-yl]pyrazolo[1,5-a][1,3,5]triazin-4-yl]-2,3,4,9-tetrahydro-1H-carbazol-3-amine] | > 1500 nM
10 | CC(C)c1cnn2c(N[C@@H]3CCc4[nH]c5cccnc5c4C3)nc(-c3cncc(F)c3)nc12 [Compound I-8b, (8R)—N-[2-(5-Fluoro-3-pyridyl)-8-isopropyl-pyrazolo[1,5-a][1,3,5]triazin-4-yl]-6,7,8,9-tetrahydro-5H-pyrido[3,2-b]indol-8-amine] | 1000 to 1500 nM
11 | CC(C)c1cnn2c(N[C@@H]3CCc4[nH]c5ccccc5c4C3)nc(-c3ccc(N(C)C)nc3)nc12 [Compound I-6, (3R)—N-[2-[6-(dimethylamino)-3-pyridyl]-8-isopropyl-pyrazolo[1,5-a][1,3,5]triazin-4-yl]-2,3,4,9-tetrahydro-1H-carbazol-3-amine] | > 1500 nM
12 | Fc1cncc(-c2nc(N[C@@H]3CCc4[nH]c5ccccc5c4C3)n3ncc(C4CCOC4)c3n2)c1 (stereo partly drawn) [Compound I-18, (3R)—N-[2-(5-fluoro-3-pyridyl)-8-tetrahydrofuran-3-yl-pyrazolo[1,5-a][1,3,5]triazin-4-yl]-2,3,4,9-tetrahydro-1H-carbazol-3-amine] | < 500 nM
13 | C[C@@H](NC(=O)N1CCOCC1)c1cnn2c(N[C@@H]3CCc4[nH]c5ccccc5c4C3)nc(-c3cncc(F)c3)nc12 [Compound I-56b, N-[(1R)-1-[2-(5-Fluoro-3-pyridyl)-4-[[(3R)-2,3,4,9-tetrahydro-1H-carbazol-3-yl]amino]pyrazolo[1,5-a][1,3,5]triazin-8-yl]ethyl]morpholine-4-carboxamide] | < 500 nM
14 | CC(C)c1cnn2c(N[C@@H]3CCc4[nH]c5cccc(O)c5c4C3)nc(-c3cncc(F)c3)nc12 [Compound I-29b, (6R)-6-[[2-(5-Fluoro-3-pyridyl)-8-isopropyl-pyrazolo[1,5-a][1,3,5]triazin-4-yl]amino]-6,7,8,9-tetrahydro-5H-carbazol-4-ol] | > 1500 nM
15 | CC(C)c1cnn2c(NCCCO)nc(-c3cncc(F)c3)nc12 [Compound I-43, 3-[[2-(5-Fluoro-3-pyridyl)-8-isopropyl-pyrazolo[1,5-a][1,3,5]triazin-4-yl]amino]propan-1-ol] | > 1500 nM
16 | CC(C)c1cnn2c(N[C@H]3CCc4[nH]c5cccc(O)c5c4C3)nc(-c3cncc(F)c3)nc12 [Compound I-29a, (6S)-6-[[2-(5-Fluoro-3-pyridyl)-8-isopropyl-pyrazolo[1,5-a][1,3,5]triazin-4-yl]amino]-6,7,8,9-tetrahydro-5H-carbazol-4-ol] | > 1500 nM

Continued, values first:

Row | IC50 | Structure (SMILES)
17 | < 500 nM | CC(C)c1cnn2c(N[C@H]3CNc4ncccc4C3)nc(-c3cncc(F)c3)nc12 [Compound I-37b, (3R)—N-[2-(5-Fluoro-3-pyridyl)-8-isopropyl-pyrazolo[1,5-a][1,3,5]triazin-4-yl]-1,2,3,4-tetrahydro-1,8-naphthyridin-3-amine]
18 | < 500 nM | [2H]C([2H])([2H])C(c1cnn2c(N[C@@H]3CCc4[nH]c5ccccc5c4C3)nc(-c3cncc(F)c3)nc12)C([2H])([2H])[2H] [Compound I-59, (3R)—N-[2-(5-Fluoro-3-pyridyl)-8-[2,2,2-trideuterio-1-(trideuteriomethyl)ethyl]pyrazolo[1,5-a][1,3,5]triazin-4-yl]-2,3,4,9-tetrahydro-1H-carbazol-3-amine]
19 | < 500 nM | C=C(C)c1cnn2c(N[C@@H]3CCc4[nH]c5ccccc5c4C3)nc(-c3cncc(F)c3)nc12 [Compound I-11, (3R)—N-[2-(5-Fluoro-3-pyridyl)-8-isopropenyl-pyrazolo[,5-a][1,3,5]triazin-4-yl]-2,3,4,9-tetrahydro-1H-carbazol-3-amine]
20 | < 500 nM | Fc1cncc(-c2nc(N[C@@H]3CCc4[nH]c5ccccc5c4C3)n3nc4c(c3n2)COCC4)c1 [Compound I-33, 2-(5-fluoro-3-pyridyl)-N-[(3R)-2,3,4,9-tetrahydro-1H-carbazol-3-yl]-8,10-dihydro-7H-pyrano[2,3]pyrazolo[2,4-c][1,3,5]triazin-4-amine]
21 | < 500 nM | COC[C@H](C)c1cnn2c(N[C@@H]3CCc4[nH]c5ccccc5c4C3)nc(-c3cncc(F)c3)nc12 [Compound I-64a, (3R)—N-[2-(5-Fluoro-3-pyridyl)-8-[(1R)-2-methoxy-1-methyl-ethyl]pyrazolo[1,5-a][1,3,5]triazin-4-yl]-2,3,4,9-tetrahydro-1H-carbazol-3-amine]
22 | < 500 nM | C[C@H](NC(=O)N1CCN(C)CC1)c1cnn2c(N[C@@H]3CCc4[nH]c5ccccc5c4C3)nc(-c3cncc(F)c3)nc12 [Compound I-61a, N-[(1S)-1-[2-(5-Fluoro-3-pyridyl)-4-[[(3R)-2,3,4,9-tetrahydro-1H-carbazol-3-yl]amino]pyrazolo[1,5-a][1,3,5]triazin-8-yl]ethyl]-4-methyl-piperazine-1-carboxamide]
23 | < 500 nM | C[C@@H](CO)c1cnn2c(N[C@@H]3CCc4[nH]c5ccccc5c4C3)nc(-c3cncc(F)c3)nc12 [Compound I-25a, (2R)-2-[2-(5-Fluoro-3-pyridyl)-4-[[(3R)-2,3,4,9-tetrahydro-1H-carbazol-3-yl]amino]pyrazolo[1,5-a][1,3,5]triazin-8-yl]propan-1-ol]

— US20220144839A1, “INDOLE AHR INHIBITORS AND USES THEREOF” (Ikena Oncology, Inc., priority 2018, published 2022)
